Reference: paper PMC11359809, “Probing the molecular basis for signal transduction through the Zinc-Activated Channel (ZAC)” (Biochemical pharmacology, 2021)
Values joined by “and” are separate entries in the source; they are usually repeats but may differ in a detail not shown here. Equal entries are not always repeated.

What was measured:
[1] = target: T1, m5-HT3A/ZAC (Mus musculus / Homo sapiens, UniProt P23979); assay: TEVC in oocytes expressing m5-HT3A/ZAC chimera; assay type: cell-based
T1 sequence (P23979 24-246): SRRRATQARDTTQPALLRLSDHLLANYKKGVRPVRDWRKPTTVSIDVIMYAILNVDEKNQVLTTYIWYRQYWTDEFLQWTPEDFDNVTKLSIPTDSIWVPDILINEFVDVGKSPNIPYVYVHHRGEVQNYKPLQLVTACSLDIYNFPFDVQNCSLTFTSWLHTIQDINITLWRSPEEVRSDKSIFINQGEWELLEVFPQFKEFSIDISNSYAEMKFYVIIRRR
T1 sequence (Q401N2 231-412 partner): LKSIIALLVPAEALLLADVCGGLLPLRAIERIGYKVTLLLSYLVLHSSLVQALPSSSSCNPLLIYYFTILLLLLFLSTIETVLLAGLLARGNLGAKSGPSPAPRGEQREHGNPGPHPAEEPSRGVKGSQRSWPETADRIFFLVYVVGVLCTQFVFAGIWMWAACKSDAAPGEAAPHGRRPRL
Text: (§1) The construction of the ZAC-pUNIV plasmid (encoding for the human WT ZAC that contains a Thr in position 128) has been described previously. The m5-HT3A and hα1 GlyR cDNAs were subcloned from their original vectors into pUNIV (Addgene, Watertown, MA) using NheI and EcoRI as restriction enzymes. […] The C-terminus modifications in these four chimeras were introduced in their cDNAs in the same way. Point mutations were introduced in cDNAs by use of the QuikChange mutagenesis kit (Stratagene, San Diego, CA). The validity and absence of unwanted mutations in the constructed cDNAs was verified by DNA sequencing (Macrogen Europe, Amsterdam, The Netherlands).
(§2) All cDNAs used for cRNA synthesis were inserted in the pUNIV vector. The cDNAs were linearized and subsequently transcribed and capped using the mMessage mMachine T7 RNA transcription kit (Ambion, Waltham, MA). […] Oocytes were incubated in a sterile modified Barth’s solution [88 mM NaCl, 1 mM KCl, 15 mM HEPES (pH 7.5), 2.4 mM NaHCO3, 0.41 mM CaCl2, 0.82 mM MgSO4, 0.3 mM Ca(NO3)2, 100 U/ml penicillin and 100 μg/ml streptomycin] at 16–18 °C. Based on experience gained with WT ZAC in a recent study, all TEVC recordings were performed two days after cRNA injection.
(§3) On the day of the TEVC recording, all compound dilutions were prepared in a saline solution [115 mM NaCl, 2.5 mM KCl, 10 mM MOPS (pH 7.5), 1.8 mM CaCl2, 0.1 mM MgCl2], and pH was adjusted to 7.5 (if needed). Oocytes were placed in a recording chamber continuously perfused with this saline solution, and the compounds were applied in the perfusate. Both voltage and current electrodes were agar-plugged with 3 M KCl with a resistance of 0.2–2.0 MΩ. Oocytes were voltage-clamped at −50 mV (except in the studies of the chimeras and their parent receptors where they were clamped at −60 mV, section 3.1), by a Gene Clamp 500B amplifier, and current signals were digitized by a Digidata 1322A (both from Axon Instruments, Union City, CA). Currents were recorded using pCLAMP 10 (Molecular Devices, Sunnyvale, CA). The recordings were performed at room temperature.
(§4) In all recordings, compounds or compound combinations were applied in the bath until the peak current decayed to a steady state (up to 30 s). […] The antagonist properties of compounds were determined by pre-application of the compound to the perfusate for 30 s followed by co-application of the compound and the agonist. In all recordings, washes of 1–5 min were executed between the ligand applications, the length of the washes depending on the agonist concentrations used and on the return to baseline current amplitude.
(§5) Analysis of the data from the TEVC recordings were performed using Clampfit software version 10.5 (Molecular Devices, Crawley, UK) and GraphPad Prism version 7.0c (GraphPad Software, La Jolla, CA). Unless otherwise stated, the inward currents induced by agonists in oocytes were normalized to the maximal response elicited by a specific agonist (agonist Imax) on each oocyte. Concentration-response and concentration-inhibition curves were fitted in GraphPad Prism by nonlinear regression using the equation for sigmoidal dose-response with variable slope. Each data point represents the mean ± S.E.M. value of recordings performed on at least five oocytes in total from at least two different batches. For the data where statistical analysis was performed, a one-way ANOVA was used. The null hypothesis was rejected at P < 0.05, and the differences between the means were analyzed by Tukey’s multiple comparisons test.

[2] = system: m5-HT3A^FPR/ZAC; assay: TEVC in oocytes, Cys-loop modified chimera m5-HT3A^FPR/ZAC; assay type: cell-based, mouse/human; details: data not shown
Protocol: (§6) The recordings were performed at room temperature.
To probe the effects of exchanges of regions involved in the ECD/TMD cross-talk between the two CLRs fused in a chimera on its functionality, we constructed 12 additional chimeras, three for each of the four original chimeras (Fig. 1A). Inspired by the similar modifications that have been introduced in a functional GLIC/hα1-Gly chimera, we swapped one or both of two specific regions: the three-residue FPX (Phe-Pro-X) motif in the Cys-loop of the ECD (FPR, FPF and […] in ZAC, m5-HT3A and hα1 GlyR, respectively), which is known to protude into proximity of the M2-M3 linker during the ECD/TMD cross-talk, and the extracellular C-terminus of the TMD, which differs substantially in both amino acid sequence and length between ZAC and the two classical CLRs combined with it in the chimeras (Fig. 4B). […] In light of this, it was not surprising that the four chimeras comprising exchanges of both the FPX motif and the C-terminus also were non-functional (data not shown).

[3] = target: T2, WT m5-HT3AR (Mus musculus, UniProt P23979); assay: TEVC in Xenopus oocytes expressing WT m5-HT3AR; assay type: cell-based
T2 construct: expressed in transfected cells; host or cells: Xenopus oocytes injected with cRNA (pUNIV vector)
T2 sequence (P23979 24-489): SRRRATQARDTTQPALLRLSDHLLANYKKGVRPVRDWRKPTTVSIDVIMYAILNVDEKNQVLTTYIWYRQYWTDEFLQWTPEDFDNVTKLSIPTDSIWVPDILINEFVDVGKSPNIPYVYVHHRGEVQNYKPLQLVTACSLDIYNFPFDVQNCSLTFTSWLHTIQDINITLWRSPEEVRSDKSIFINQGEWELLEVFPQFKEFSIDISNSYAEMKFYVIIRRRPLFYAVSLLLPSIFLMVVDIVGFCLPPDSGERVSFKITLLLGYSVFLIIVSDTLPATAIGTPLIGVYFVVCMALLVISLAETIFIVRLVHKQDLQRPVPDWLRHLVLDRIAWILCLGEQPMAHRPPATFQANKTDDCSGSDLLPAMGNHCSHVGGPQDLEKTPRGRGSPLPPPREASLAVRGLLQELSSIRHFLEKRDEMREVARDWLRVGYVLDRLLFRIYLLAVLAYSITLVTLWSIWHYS
Protocol: as §6, §5

[4] = target: T3, WT hα1 GlyR (Homo sapiens, UniProt P23415); assay type: cell-based
T3 construct: expressed in transfected cells; host or cells: Xenopus oocytes injected with cRNA (pUNIV vector)
T3 sequence (P23415 29-457): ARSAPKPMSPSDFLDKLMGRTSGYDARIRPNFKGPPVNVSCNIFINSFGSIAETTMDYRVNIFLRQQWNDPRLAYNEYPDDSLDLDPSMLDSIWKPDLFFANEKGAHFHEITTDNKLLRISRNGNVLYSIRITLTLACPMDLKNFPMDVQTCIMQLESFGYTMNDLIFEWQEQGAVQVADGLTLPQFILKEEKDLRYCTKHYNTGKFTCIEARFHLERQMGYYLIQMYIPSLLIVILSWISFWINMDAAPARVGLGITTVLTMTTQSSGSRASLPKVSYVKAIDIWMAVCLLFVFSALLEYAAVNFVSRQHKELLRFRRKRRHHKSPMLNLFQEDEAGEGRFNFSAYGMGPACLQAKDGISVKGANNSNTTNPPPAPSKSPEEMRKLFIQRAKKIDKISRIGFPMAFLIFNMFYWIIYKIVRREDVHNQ
Text: as §1, §2, §3, §4
as §5, with “For the data where statistical analysis was performed, a one-way ANOVA was used.” left out

[5] = system: hα1-Gly/ZAC-II; details: Gly 1 mM; data not shown
Text: as §1
All cDNAs used for cRNA synthesis were inserted in the pUNIV vector. […]
On the day of the TEVC recording, all compound dilutions were prepared in a saline solution [115 mM NaCl, 2.5 mM KCl, 10 mM MOPS (pH 7.5), 1.8 mM CaCl2, 0.1 mM MgCl2], and pH was adjusted to 7.5 (if needed). […] Currents were recorded using pCLAMP 10 (Molecular Devices, Sunnyvale, CA). […]
In all recordings, compounds or compound combinations were applied in the bath until the peak current decayed to a steady state (up to 30 s). […] The antagonist properties of compounds were determined by pre-application of the compound to the perfusate for 30 s followed by co-application of the compound and the agonist. […]

[6] = system: hα1-Gly/ZAC; assay: TEVC in oocytes expressing hα1-Gly/ZAC chimera; assay type: cell-based, human; details: 1 mM Gly; n = 5
Protocol: as §6, §5
Initially, we constructed four chimeric subunits fusing the ZAC ECD or TMD-ICD with the complementary domains from either the m5-HT3A or the hα1 GlyR subunit: ZAC/m5-HT3A, m5-HT3A/ZAC, ZAC/hα1-Gly and hα1-Gly/ZAC (Fig. 1A). […] (Fig. 1A).

[7] = sustained (4 min) application of 3 μM 5-HT
[8] = sustained (4 min) application of 100 μM 5-HT

SMILES | Imax (current amplitude evoked by saturating agonist) ([1]; 3 μM 5-HT, n = 12) [μA] | 5-HT-evoked current amplitudes ([1]; high-expressing half of the oocytes) | 5-HT-evoked current amplitudes ([1]; low-expressing half of the oocytes) | Iresidual, 4 min [1, 7] | Δtstart-to-peak [1, 7] [s] | concentration-response relationship compared to m5-HT3A/ZAC [2] | Imax (current amplitude evoked by saturating agonist) ([3]; 300 μM 5-HT, n = 7) [μA] | nH ± S.E.M. (Hill slope) ([3]; agonist, n = 7) | Iresidual, 4 min [3, 8] | Δtstart-to-peak [3, 8] [s] | time to complete return to baseline ([3]; sustained application of 100 μM 5-HT, mean ± S.E.M., n = 7) [s] | Imax (current amplitude evoked by saturating agonist) [4] [μA] | Δtpeak-to-plateau [4] [s] | Δtstart-to-peak [4] [s] | agonist-evoked current [5] | I1 mM Gly ± S.E.M. [6] [μA]
NCCc1c[nH]c2ccc(O)cc12 [5-HT, 5-hydroxytryptamine] | 0.60 ± 0.19 | 0.8–2.1 μA | 0.1–0.2 μA | 67 % of Ipeak and 67 ± 6 % of Ipeak | 46 ± 7.2 | not significantly different | 2.92 ± 0.13 | 1.3 ± 0.3 | ~0 (none) % of Ipeak | 2.1 ± 0.4 | 98 ± 12 | – | – | – | – | –
NCC(=O)O [Gly, glycine] | – | – | – | – | – | – | – | – | – | – | – | 2.02 ± 0.24 | 52 ± 5.9 | 2.7 ± 0.3 | did not induce significant responses | −0.0062 ± 0.0022
